Read-outs that look alike come from different tables or passages of the source. Where a SMILES comes first, the peptide text is derived from it.
Experiments:
Assay in all cases: microscale thermophoresis
Assay type in all cases: binding
[1] = target: T1, orotate phosphoribosyltransferase (PyrE) (Escherichia coli, UniProt P0A7E3)
T1 sequence (P0A7E3 2-213): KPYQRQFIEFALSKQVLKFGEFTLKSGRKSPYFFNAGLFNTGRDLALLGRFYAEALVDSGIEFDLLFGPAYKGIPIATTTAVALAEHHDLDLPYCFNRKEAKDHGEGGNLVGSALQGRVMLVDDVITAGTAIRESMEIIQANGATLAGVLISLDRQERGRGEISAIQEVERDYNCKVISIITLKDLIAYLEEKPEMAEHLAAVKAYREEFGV

FabF = target: T2, FabF (Escherichia coli, UniProt P0AAI5)
T2 sequence (P0AAI5 2-413): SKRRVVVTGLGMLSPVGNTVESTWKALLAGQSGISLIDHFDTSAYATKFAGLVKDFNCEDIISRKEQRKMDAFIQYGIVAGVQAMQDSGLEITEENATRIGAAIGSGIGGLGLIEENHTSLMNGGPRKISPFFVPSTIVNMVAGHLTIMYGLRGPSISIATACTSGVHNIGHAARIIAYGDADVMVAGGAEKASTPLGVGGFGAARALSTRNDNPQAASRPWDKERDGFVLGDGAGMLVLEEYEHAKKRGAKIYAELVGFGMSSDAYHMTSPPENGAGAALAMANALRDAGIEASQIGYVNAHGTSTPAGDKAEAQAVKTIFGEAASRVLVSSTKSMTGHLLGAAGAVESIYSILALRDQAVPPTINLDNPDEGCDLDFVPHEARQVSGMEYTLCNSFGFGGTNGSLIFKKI

[2] = target: T1, orotate phosphoribosyltransferase (PyrE); remark: listed apart in the source

`O=P(O)(O)OC[C@H]1O[C@H](OP(=O)(O)OP(=O)(O)O)[C@H](O)[C@@H]1O` [PRPP] was tested, and the Kd [1] was 8.21 µM.
`CC(C)CC(NC(=O)C(N)C(C)C)C(=O)O` (stereo not drawn) [Val-Leu] (H-Val-Leu-OH; configuration not given here) gave a Kd (FabF) of 12 to 14 µM.
`Cc1cc2nc3[nH]c(=O)[nH]c(=O)c3nc2cc1C` [lumichrome] was tested, and the Kd [2] was 90.3 µM.

— publication PMC12148380 (iScience, 2025)
